Where no end group is shown, it is not given here.
How the values were obtained:
Assay in all cases: biochemical
Type in all cases: binding
DRB4*0101 = DRB4*0101 (Homo sapiens, UniProt P01903+P13762, G164S)
DRB5*0101 = DRB5*0101 (Homo sapiens, UniProt P01903+Q30154)
DRB3*0101 = DRB3*0101 (Homo sapiens, UniProt P01903+P79483)

Molecule	IC50 (DRB4*0101)	IC50 (DRB5*0101)	IC50 (DRB3*0101)
CC[C@H](C)[C@H](NC(=O)[C@@H](N)CCSC)C(=O)N[C@H](C(=O)N1CCC[C@H]1C(=O)N[C@@H](CCCCN)C(=O)N[C@@H](CO)C(=O)N[C@@H](CC(C)C)C(=O)N[C@@H](C)C(=O)NCC(=O)N1CCC[C@H]1C(=O)N[C@H](C(=O)N[C@@H](CO)C(=O)N[C@@H](CCC(N)=O)C(=O)N[C@@H](Cc1c[nH]cn1)C(=O)N[C@@H](CC(N)=O)C(=O)O)[C@@H](C)CC)[C@@H](C)CC [NS1 241-255]	1090 nM	3200 nM	
CC(C)C[C@H](NC(=O)[C@H](CCC(=O)O)NC(=O)[C@H](CC(C)C)NC(=O)[C@H](CCCCN)NC(=O)CNC(=O)[C@H](CC(C)C)NC(=O)[C@H](Cc1c[nH]cn1)NC(=O)[C@H](Cc1c[nH]c2ccccc12)NC(=O)[C@@H]1CCCN1C(=O)CNC(=O)[C@H](C)NC(=O)[C@@H](NC(=O)[C@H](CCC(N)=O)NC(=O)[C@@H](NC(=O)[C@@H](N)Cc1c[nH]cn1)[C@@H](C)O)[C@@H](C)O)C(=O)O [NS1 261-275]	666 nM		1330 nM
CC[C@H](C)[C@H](NC(=O)[C@H](CCC(=O)O)NC(=O)[C@H](C)NC(=O)[C@@H](NC(=O)[C@@H](NC(=O)CNC(=O)[C@@H](N)CCC(N)=O)C(C)C)[C@@H](C)O)C(=O)N[C@H](C(=O)N1CCC[C@H]1C(=O)N[C@@H](CCC(N)=O)C(=O)N[C@@H](C)C(=O)N[C@@H](CO)C(=O)N[C@H](C(=O)N[C@H](C(=O)N[C@@H](CCC(=O)O)C(=O)O)[C@@H](C)O)[C@@H](C)O)[C@@H](C)O [Envelope 156-170]	707 nM		
CC[C@H](C)[C@H](NC(=O)[C@H](Cc1c[nH]c2ccccc12)NC(=O)[C@H](CCC(=O)O)NC(=O)[C@@H](N)CC(N)=O)C(=O)N[C@H](C(=O)N[C@@H](CC(=O)O)C(=O)N[C@@H](Cc1ccccc1)C(=O)N[C@@H](C)C(=O)NCC(=O)N[C@@H](CCCCN)C(=O)N[C@H](C(=O)N[C@H](C(=O)N[C@@H](Cc1c[nH]c2ccccc12)C(=O)N[C@@H](Cc1ccccc1)C(=O)N[C@H](C(=O)O)C(C)C)C(C)C)[C@@H](C)O)[C@@H](C)O [NS3 349-363]	5420 nM		221 nM
CC[C@H](C)[C@H](NC(=O)[C@H](C)NC(=O)[C@H](CCSC)NC(=O)[C@H](CCCNC(=N)N)NC(=O)[C@H](CCCCN)NC(=O)[C@H](CC(C)C)NC(=O)[C@H](CCCNC(=N)N)NC(=O)[C@H](CCC(=O)O)NC(=O)[C@@H](N)C(C)C)C(=O)N[C@@H](CO)C(=O)NCC(=O)N[C@@H](CC(=O)O)C(=O)N[C@@H](CC(=O)O)C(=O)N[C@@H](CS)C(=O)N[C@H](C(=O)N[C@H](C(=O)N[C@@H](CCCCN)C(=O)O)C(C)C)C(C)C [NS5 652-668]	618 nM		
CC[C@H](C)[C@H](NC(=O)[C@H](CCC(=O)O)NC(=O)CNC(=O)[C@H](CCCNC(=N)N)NC(=O)[C@H](CCCCN)NC(=O)[C@H](CC(C)C)NC(=O)CNC(=O)[C@H](CCC(=O)O)NC(=O)[C@H](CCCCN)NC(=O)[C@H](C)NC(=O)[C@H](CCC(=O)O)NC(=O)[C@@H](N)[C@@H](C)O)C(=O)N[C@H](C(=O)N[C@@H](Cc1c[nH]cn1)C(=O)N[C@@H](Cc1c[nH]cn1)C(=O)N[C@@H](C)C(=O)N[C@H](C(=O)O)C(C)C)[C@@H](C)O [NS5 39-55]	563 nM		749 nM
CC[C@H](C)[C@H](NC(=O)[C@@H](NC(=O)[C@H](CC(C)C)NC(=O)[C@H](CC(N)=O)NC(=O)[C@H](CCCNC(=N)N)NC(=O)[C@H](CCCCN)NC(=O)[C@H](CCCCN)NC(=O)[C@H](Cc1ccccc1)NC(=O)[C@H](CCSC)NC(=O)[C@H](CCC(=O)O)NC(=O)[C@@H](N)CCC(=O)O)[C@@H](C)O)C(=O)N[C@@H](CCSC)C(=O)N[C@@H](CC(=O)O)C(=O)N[C@@H](CC(C)C)C(=O)N[C@@H](Cc1c[nH]cn1)C(=O)O [NS3 181-195]	68 nM		1260 nM
C[C@H](NC(=O)[C@H](Cc1c[nH]c2ccccc12)NC(=O)[C@@H](NC(=O)[C@H](CCCCN)NC(=O)[C@H](Cc1ccc(O)cc1)NC(=O)[C@@H]1CCCN1C(=O)[C@H](CC(N)=O)NC(=O)[C@H](CCC(=O)O)NC(=O)[C@H](CC(=O)O)NC(=O)[C@H](CC(=O)O)NC(=O)[C@H](Cc1ccc(O)cc1)NC(=O)[C@H](Cc1c[nH]cn1)NC(=O)[C@H](Cc1c[nH]c2ccccc12)NC(=O)[C@@H](N)[C@@H](C)O)[C@@H](C)O)C(=O)N[C@@H](Cc1ccc(O)cc1)C(=O)N[C@@H](Cc1c[nH]cn1)C(=O)NCC(=O)O [NS5 290-306]	15600 nM		
CC[C@H](C)[C@H](NC(=O)[C@H](CCSC)NC(=O)[C@H](CO)NC(=O)[C@H](CO)NC(=O)[C@H](C)NC(=O)[C@H](CO)NC(=O)CNC(=O)[C@@H](NC(=O)[C@H](C)NC(=O)[C@H](CCCCN)NC(=O)[C@@H](NC(=O)[C@H](CCC(=O)O)NC(=O)[C@H](Cc1ccc(O)cc1)NC(=O)[C@H](CO)NC(=O)CN)C(C)C)[C@@H](C)O)C(=O)N[C@@H](CC(N)=O)C(=O)NCC(=O)O [NS5 306-322]	5550 nM		2290 nM
CC[C@H](C)[C@H](NC(=O)[C@H](Cc1c[nH]c2ccccc12)NC(=O)[C@H](CCC(=O)O)NC(=O)[C@H](CC(N)=O)NC(=O)CNC(=O)[C@H](CO)NC(=O)[C@H](CC(N)=O)NC(=O)[C@@H](N)Cc1c[nH]c2ccccc12)C(=O)N[C@H](C(=O)N[C@@H](CC(=O)O)C(=O)N[C@@H](Cc1ccccc1)C(=O)N[C@@H](C)C(=O)NCC(=O)N[C@@H](CCCCN)C(=O)N[C@H](C(=O)O)[C@@H](C)O)[C@@H](C)O [NS3 345-359]	1050 nM		32 nM
CC[C@H](C)[C@H](NC(=O)[C@@H](NC(=O)[C@H](CC(C)C)NC(=O)[C@H](CC(N)=O)NC(=O)[C@H](CCCNC(=N)N)NC(=O)[C@H](CCCCN)NC(=O)[C@@H](N)CCCCN)[C@@H](C)O)C(=O)N[C@@H](CCSC)C(=O)N[C@@H](CC(=O)O)C(=O)N[C@@H](CC(C)C)C(=O)N[C@@H](Cc1c[nH]cn1)C(=O)N1CCC[C@H]1C(=O)NCC(=O)N[C@@H](CO)C(=O)NCC(=O)O [NS3 185-199]	7.6 nM		1460 nM
CC[C@H](C)[C@H](NC(=O)[C@H](CO)NC(=O)[C@H](C)N)C(=O)N[C@@H](C)C(=O)N[C@@H](C)C(=O)N[C@@H](CCCNC(=N)N)C(=O)NCC(=O)N[C@@H](Cc1ccc(O)cc1)C(=O)N[C@H](C(=O)N[C@@H](CO)C(=O)N[C@H](C(=O)N[C@@H](CCCNC(=N)N)C(=O)N[C@H](C(=O)NCC(=O)N[C@@H](CCSC)C(=O)O)C(C)C)[C@@H](C)O)[C@@H](C)CC [NS3 293-307]	2670 nM		18900 nM
EITPQASTTEAILPE [Envelope 161-175]	16600 nM		
CC[C@H](C)[C@H](NC(=O)[C@H](CC(=O)O)NC(=O)[C@H](CCSC)NC(=O)[C@@H](NC(=O)[C@@H](NC(=O)CNC(=O)[C@H](CCCCN)NC(=O)[C@@H]1CCCN1C(=O)[C@@H](NC(=O)[C@@H]1CCCN1)[C@@H](C)O)[C@@H](C)O)C(C)C)C(=O)N[C@H](C(=O)N[C@@H](CO)C(=O)N[C@@H](CCCNC(=N)N)C(=O)N[C@@H](CCCCN)C(=O)N[C@@H](CC(=O)O)C(=O)N[C@@H](CCC(N)=O)C(=O)N[C@@H](CCCNC(=N)N)C(=O)O)[C@@H](C)CC [NS5 582-598]	1540 nM		7220 nM
CC[C@H](C)[C@H](N)C(=O)N[C@@H](CO)C(=O)N[C@@H](Cc1ccc(O)cc1)C(=O)NCC(=O)NCC(=O)NCC(=O)N[C@@H](Cc1c[nH]c2ccccc12)C(=O)N[C@@H](CCCNC(=N)N)C(=O)N[C@@H](CC(C)C)C(=O)N[C@@H](CO)C(=O)N[C@@H](C)C(=O)N[C@@H](CCC(N)=O)C(=O)N[C@@H](Cc1c[nH]c2ccccc12)C(=O)N[C@@H](CCC(N)=O)C(=O)N[C@@H](CCCCN)C(=O)O [NS3 77-91]	708 nM		2020 nM
CC[C@H](C)[C@H](NC(=O)[C@H](C)NC(=O)[C@H](CCC(=O)O)NC(=O)[C@H](CCCNC(=N)N)NC(=O)[C@@H](N)C(C)C)C(=O)N[C@@H](CCCCN)C(=O)N[C@@H](CCCNC(=N)N)C(=O)N[C@@H](CCCNC(=N)N)C(=O)N[C@@H](CC(C)C)C(=O)N[C@@H](CCCNC(=N)N)C(=O)N[C@H](C(=O)N[C@@H](CC(C)C)C(=O)N[C@H](C(=O)N[C@@H](CC(C)C)C(=O)N[C@@H](C)C(=O)O)[C@@H](C)CC)[C@@H](C)O [NS3 209-223]	5.1 nM		2610 nM
CC[C@H](C)[C@H](NC(=O)[C@@H](NC(=O)[C@H](CCSC)NC(=O)[C@H](CC(=O)O)NC(=O)[C@H](CO)NC(=O)[C@H](CCC(=O)O)NC(=O)[C@H](CC(C)C)NC(=O)[C@@H](NC(=O)CNC(=O)[C@H](CC(N)=O)NC(=O)[C@H](CO)NC(=O)[C@H](Cc1c[nH]c2ccccc12)NC(=O)[C@H](CC(C)C)NC(=O)[C@@H](NC(=O)[C@@H](N)Cc1c[nH]cn1)[C@@H](C)O)C(C)C)[C@@H](C)CC)C(=O)O [NS1 229-243]	8080 nM		733 nM
CC[C@H](C)[C@H](NC(=O)[C@H](C)NC(=O)[C@@H](NC(=O)[C@H](C)NC(=O)[C@H](CC(C)C)NC(=O)[C@H](CCCNC(=N)N)NC(=O)[C@H](CCCCN)NC(=O)[C@@H]1CCCN1C(=O)[C@H](CO)NC(=O)[C@H](CC(=O)O)NC(=O)[C@H](C)NC(=O)[C@H](CCC(N)=O)NC(=O)[C@H](Cc1ccccc1)NC(=O)[C@@H](N)CCCCN)[C@@H](C)O)C(=O)N[C@@H](C)C(=O)O [NS1 33-47]	916 nM		22 nM
CC[C@H](C)[C@H](NC(=O)[C@H](CCCCN)NC(=O)[C@H](CCCCN)NC(=O)[C@H](CCC(=O)O)NC(=O)[C@H](CC(C)C)NC(=O)[C@@H]1CCCN1C(=O)[C@H](Cc1c[nH]cn1)NC(=O)[C@@H]1CCCN1)C(=O)N[C@H](C(=O)N[C@@H](CCC(N)=O)C(=O)N[C@@H](Cc1c[nH]c2ccccc12)C(=O)N[C@@H](CC(C)C)C(=O)N[C@@H](CCC(=O)O)C(=O)N[C@H](C(=O)N[C@@H](CCCCN)C(=O)NCC(=O)N[C@H](C(=O)O)C(C)C)[C@@H](C)O)[C@@H](C)O [NS5 636-652]	3830 nM		
LPWTSGATTETPTWN [Envelope 216-230]	11600 nM		

Reference: paper PMC3794980, “Identification of Conserved and HLA Promiscuous DENV3 T-Cell Epitopes” (PLoS Neglected Tropical Diseases, 2013)
